Patent publication US9932637B2, “Genetic polymorphisms associated with cardiovascular disorders and drug response, methods of detection and uses thereof” (CELERA CORPORATION, priority 2003, dated 2018)
Several values for one entry are separate records, joined by “and”; a condition that tells them apart may be missing. Equal values may be shown once.

Test system: patients with prior myocardial infarction (CARE study)
Assay: CARE aligned analysis (prospective and case/control design, white males): association of genotypes with pravastatin efficacy (Tables 13, 15)
Type: in vivo, human
Description: The data presented in Table 8 based on an association of genotypes with pravastatin efficacy of the CARE samples were further analyzed and presented in Table 13. The further analysis was performed to align the data obtained from the analysis of the CARE samples, which was a prospective study, to the analysis of the WOSCOP samples, which was a case/control study. Table 13 also presents an analysis of the association of genotypes with pravastatin efficacy in the WOSCOPs samples. Relative to the analysis performed on the data presented in Table 8, there are two significant differences to determine if the SNP influenced pravastatin efficacy. Data obtained from the CARE samples were separated by study design into two groups, those in the prospective study design group and those in the case/control study design group. The original care study contained 16 protocol defined cardiovascular disease defined endpoints and 150 other phenotypes. […] The control groups used to compare the data were also divided into two groups, the “all possible” control group and the “cleaner” control group. […] Because the participants in the WOSCOPs trial were all white males, only data obtained from white males in the CARE study were analysed. Data from the “all possible” and “cleaner” controls were compared to data obtained from the cases in the prospective study design while only data from “cleaner” controls were compared to cases in the case/control study design. The data from the case/control cohorts were analysed using conditional logistic regression (as opposed to logistic regression used for the original anaylsis).
The anaylsis was refined as described for both Tables 13 and 14.

[1] = A2M hCV517658, CARE Case/Control, F&NF MI
[2] = ABCA1 hCV2741051, CARE Case/Control, F&NF MI
[3] = ABCA1 hCV2741051, CARE Prospective, F&NF MI
[4] = ABCA1 hCV2741083, CARE Prospective, F&NF MI
[5] = ADAM12 hCV25928135, CARE Case/Control, F&NF MI
[6] = AGTR1 hCV3187716, CARE, Case/Control, F MI/SD/NF MI
[7] = AGTR1 hCV3187716, CARE, Prospective, F MI/SD/NF MI
[8] = ALOX12 hCV1552894, CARE Prospective, F&NF MI
[9] = ALOX12 hCV1552900, CARE Prospective, F&NF MI
[10] = ASAH1 hCV2442143, CARE, Prospective, F MI/SD/NF MI
[11] = C14orf159 hCV25472345, CARE Case/Control, F&NF MI
[12] = C14orf159 hCV25472345, CARE Prospective, F&NF MI
[13] = CAPG hCV15851292, CARE, Case/Control, F MI/SD/NF MI
[14] = CAPN10 hCV25614016, CARE, Case/Control, F MI/SD/NF MI, listed as Pravastatin
[15] = CAPN10 hCV25614016, CARE, Prospective, F MI/SD/NF MI

CC[C@H](C)C(=O)O[C@H]1C[C@H](O)C=C2C=C[C@H](C)[C@H](CC[C@@H](O)C[C@@H](O)CC(=O)O)[C@H]21 [pravastatin]
2 Rare Alleles (%), Pravastatin Patients [1]: (7.6%) | 2 Rare Alleles n/total, Pravastatin Patients [1]: 11/144 and 11/101 | Pravastatin vs placebo odds ratio, 0 rare alleles [1]: 0.55 and 0.53 | Pravastatin vs placebo odds ratio, 1 rare allele [1]: 1.04 and 0.93 | Pravastatin vs placebo odds ratio, 2 rare alleles [1]: 0.47 and 0.38 | 2 Rare Alleles n/total, Pravastatin Patients [2]: 12/93 and 12/64 | Pravastatin vs placebo odds ratio, 0 rare alleles [2]: 0.55 and 0.52 | Pravastatin vs placebo odds ratio, 1 rare allele [2]: 0.98 and 0.82 | Pravastatin vs placebo odds ratio, 2 rare alleles [2]: 1.71 and 1.81 | 2 Rare Alleles n/total, Pravastatin Patients [3]: 12/94 and 12/65 | Pravastatin vs placebo odds ratio, 0 rare alleles [3]: 0.55 and 0.52 | Pravastatin vs placebo odds ratio, 1 rare allele [3]: 0.99 and 0.83 | Pravastatin vs placebo odds ratio, 2 rare alleles [3]: 1.80 and 1.81 | 2 Rare Alleles n/total, Pravastatin Patients (ABCA1 hCV2741083, CARE Case/Control, F&NF MI): 4/22 and 4/18 | 2 Rare Alleles n/total, Pravastatin Patients [4]: 4/23 and 4/19 | Pravastatin vs placebo odds ratio, 0 rare alleles [4]: 0.63 | Pravastatin vs placebo odds ratio, 1 rare allele [4]: 1.52 | Pravastatin vs placebo odds ratio, 2 rare alleles [4]: 2.74 | Pravastatin vs. Placebo Odds Ratio (ABCA1 hCV2741083, Patients with 0 Rare Alleles, CARE Case/Control, F MI/SD/NF MI): 0.60 | Pravastatin vs. Placebo Odds Ratio (ABCA1 hCV2741083, Patients with 0 Rare Alleles, CARE Prospective, F MI/SD/NF MI): 0.59 | Pravastatin vs. Placebo Odds Ratio (ABCA1 hCV2741083, Patients with 1 Rare Allele, CARE Case/Control, F MI/SD/NF MI): 1.53 | Pravastatin vs. Placebo Odds Ratio (ABCA1 hCV2741083, Patients with 1 Rare Allele, CARE Prospective, F MI/SD/NF MI): 1.61 | Pravastatin vs. Placebo Odds Ratio (ABCA1 hCV2741083, Patients with 2 Rare Alleles, CARE Case/Control, F MI/SD/NF MI): 0.71 | Pravastatin vs. Placebo Odds Ratio (ABCA1 hCV2741083, Patients with 2 Rare Alleles, CARE Prospective, F MI/SD/NF MI): 0.53 | 2 Rare Alleles (%), Pravastatin Patients [5]: (17.1%) | 2 Rare Alleles n/total, Pravastatin Patients [5]: 7/58 and 7/41 | Pravastatin vs placebo odds ratio, 2 rare alleles [5]: 0.47 and 0.37 | Pravastatin vs. Placebo Odds Ratio (ADAMTS1 hCV529706, Patients with 0 Rare Alleles, CARE Case/Control, F MI/SD/NF MI): 0.91 | Pravastatin vs. Placebo Odds Ratio (ADAMTS1 hCV529706, Patients with 1 Rare Allele, CARE Case/Control, F MI/SD/NF MI): 0.64 | Pravastatin vs. Placebo Odds Ratio (ADAMTS1 hCV529706, Patients with 2 Rare Alleles, CARE Case/Control, F MI/SD/NF MI): 0.20 | Pravastatin vs. Placebo Odds Ratio (ADAMTS1 hCV529710, Patients with 0 Rare Alleles, CARE Case/Control, F MI/SD/NF MI): 0.91 | Pravastatin vs. Placebo Odds Ratio (ADAMTS1 hCV529710, Patients with 1 Rare Allele, CARE Case/Control, F MI/SD/NF MI): 0.63 | Pravastatin vs. Placebo Odds Ratio (ADAMTS1 hCV529710, Patients with 2 Rare Alleles, CARE Case/Control, F MI/SD/NF MI): 0.20 | 2 rare alleles n/total (%), pravastatin patients [6]: (7.5%) | Pravastatin vs placebo odds ratio, 0 rare alleles [6]: 0.65 | Pravastatin vs placebo odds ratio, 1 rare allele [6]: 1.03 | Pravastatin vs placebo odds ratio, 2 rare alleles [6]: 0.26 | 2 rare alleles n/total (%), pravastatin patients [7]: (7.2%) | Pravastatin vs placebo odds ratio, 0 rare alleles [7]: 0.65 | Pravastatin vs placebo odds ratio, 1 rare allele [7]: 1.02 | Pravastatin vs placebo odds ratio, 2 rare alleles [7]: 0.23 | Pravastatin vs. Placebo Odds Ratio (AGTR1 hCV3187716, Patients with 0 Rare Alleles, CARE Prospective, F MI/SD/NF MI): 0.70 | Pravastatin vs. Placebo Odds Ratio (AGTR1 hCV3187716, Patients with 1 Rare Allele, CARE Prospective, F MI/SD/NF MI): 1.18 | Pravastatin vs. Placebo Odds Ratio (AGTR1 hCV3187716, Patients with 2 Rare Alleles, CARE Prospective, F MI/SD/NF MI): 0.27 | 2 Rare Alleles (%), Pravastatin Patients [8]: (7.6%) | 2 Rare Alleles n/total, Pravastatin Patients [8]: 15/198 | Pravastatin vs placebo odds ratio, 2 rare alleles [8]: 0.38 | 2 Rare Alleles (%), Pravastatin Patients [9]: (7.6%) | 2 Rare Alleles n/total, Pravastatin Patients [9]: 15/198 | Pravastatin vs placebo odds ratio, 2 rare alleles [9]: 0.38 | 2 rare alleles n/total (%), pravastatin patients [10]: (13.2%) | Pravastatin vs placebo odds ratio, 0 rare alleles [10]: 0.42 | Pravastatin vs placebo odds ratio, 1 rare allele [10]: 0.78 | Pravastatin vs placebo odds ratio, 2 rare alleles [10]: 1.16 | 2 Rare Alleles (%), Pravastatin Patients [11]: (5.0%) | 2 Rare Alleles n/total, Pravastatin Patients [11]: 7/140 | Pravastatin vs placebo odds ratio, 2 rare alleles [11]: 0.30 | 2 Rare Alleles (%), Pravastatin Patients [12]: (5.0%) | 2 Rare Alleles n/total, Pravastatin Patients [12]: 7/140 | Pravastatin vs placebo odds ratio, 2 rare alleles [12]: 0.30 | 2 rare alleles n/total (%), pravastatin patients [13]: (21.4%) | Pravastatin vs placebo odds ratio, 0 rare alleles [13]: 0.81 | Pravastatin vs placebo odds ratio, 1 rare allele [13]: 0.37 | Pravastatin vs placebo odds ratio, 2 rare alleles [13]: 5.35 | Pravastatin vs placebo odds ratio, 2 rare alleles (CAPN10 hCV25614016, CARE, Case/Control, F MI/SD/NF MI): 0.90 | Pravastatin vs placebo odds ratio, 0 rare alleles [14]: 0.62 and 0.56 | Pravastatin vs placebo odds ratio, 1 rare allele [14]: 1.58 and 1.43 | Pravastatin vs placebo odds ratio, 2 rare alleles [14]: 1.07 | 2 rare alleles n/total (%), pravastatin patients [15]: (9.1%) | Pravastatin vs placebo odds ratio, 0 rare alleles [15]: 0.63 and 0.56 | Pravastatin vs placebo odds ratio, 1 rare allele [15]: 1.60 and 1.42
